Consider 2 substances from patent publication US20140051744A1, “Markers For Assessing the Susceptibility of Cancer to Survivin-Targeting miRNA Treatment” (The Regents of the University of Colorado, A Body Corporate, priority 2012, published 2014).

Series [1] relates to Survivin. The settings on record: cells transfected with miR-542-3p mimics vs negative control-transfected cells; cited from earlier work.
Series [2] concerns Survivin. As to the kind of experiment: Western blot of Survivin protein after miRNA mimic transfection in erbB2+ breast cancer cells. The format is cell-based, human. As to conditions: mimic transfection 24 hrs. The text has this:
(§1) FIGS. 1A-B. Transfection of the mimics of miR-203 and/or miR-542-3p dramatically increases their expression levels and specifically down-regulates Survivin, but not other functionally related molecules, such as Mcl-1 and Bcl-xL. SKBR3.B3.1 and […] cells were transfected with either control miRNA mimic, or miR-203 mimic, or miR-542-3p mimic alone, or the combination of miR-203 and miR-542-3p mimics for 24 hrs. (FIG. 1A) Cells were collected and subjected to total RNA extraction, inclusive of the small RNA fraction. The expression levels of miR-203 and miR-542-3p were measured by qRT-PCR using TaqMan miRNA assays. All results were normalized with the internal control RNU6B. Bars, SD. […] (FIG. 1B) Cells were collected and subjected to western blot analyses with specific antibodies directed against Survivin, Mcl-1, Bcl-xL, or β-actin. The densitometry analyses of Survivin signals were shown underneath, and the arbitrary numbers indicate the intensities of each cell line relative to controls, defined as 1.0.
MDA-MB-453 and BT474 cells (FIG. 2A), and BT474-HR20 cells (FIG. 2B) were transfected with either control miRNA mimic, or miR-203 mimic, or miR-542-3p mimic alone, or the combination of miR-203 and miR-542-3p mimics for 24 hrs. Cells were then collected and subjected to western blot analyses with specific antibodies directed against Survivin, Mcl-1, Bcl-xL, or β-actin. The densitometry analyses of Survivin signals were shown underneath, and the arbitrary numbers indicate the intensities of each cell line relative to controls, defined as 1.0.
(§2) Transfection of cells with miRNA mimic. Cell transfection with the miRIDIAN miRNA mimics or negative controls was carried out using HiPerFect Transfection Reagent (QIAGEN) according to the manufacturer's protocol.
(§3) Western blot analysis. Protein expression levels were determined by western blot analysis as described previously (Wang et al., 2010; Huang et al., 2009; Huang et al., 2011). Equal amounts of total cell lysates were boiled in Laemmli SDS-sample buffer, resolved by SDS-PAGE, transferred to nitrocellulose membrane (Bio-Rad Laboratories, Hercules, Calif.), and probed with the primary antibodies described in the figure legends. After the blots were incubated with horseradish peroxidase-labeled secondary antibody, the signals were detected using the enhanced chemiluminescence reagents (GE Healthcare Bio-Sciences Corp., Piscataway, N.J.).

Series [3] has as its system Src-transformed fibroblasts and human cancer cells. The settings on record: ectopic expression in Src-transformed fibroblasts and human cancer cells; cited from earlier work.
For the next series, the system named is 18rRNA. As to conditions: overexpression of miR-542-3p; cited from earlier work.
For series [4], the system named is PARP cleavage and caspase-3 activation. The series can be described thus: Western blot of PARP cleavage and cleaved caspase-3 after mimic transfection plus paclitaxel. The format is cell-based, human. The settings on record: SKBR3.B3.1 and SKBR3.B3.2 cells, mimic 24 hrs then paclitaxel 24 hrs; for paclitaxel-induced PARP cleavage and caspase-3 activation (cleaved caspase-3): vs paclitaxel alone in control mimic transfection.
From the text: (FIGS. 3A-B) SKBR3.B3.1 and SKBR3.B3.2 cells were transfected with either control miRNA mimic, or miR-203 mimic, or miR-542-3p mimic alone, or the combination of miR-203 and miR-542-3p mimics for 24 hrs. Cells were then untreated or treated with paclitaxel for another 24 hrs. Cells were collected and subjected to western blot analyses of PARP, cleaved caspase-3 (C-Caps-3), β-actin (FIG. 3A), or a specific apoptotic ELISA (FIG. 3B). C & D, BT474-HR20 cells were transfected with either control miRNA mimic, or miR-203 mimic, or miR-542-3p mimic alone, or the combination of miR-203 and miR-542-3p mimics for 24 hrs. Cells were then untreated or treated with paclitaxel for another 24 hrs. Cells were collected and subjected to western blot analyses of PARP, cleaved caspase-3 (C-Caps-3), or β-actin (FIG. 3C), or a specific apoptotic ELISA (FIG. 3D).
as §2, §3

The test system of another series is Bcl-xL. As to the kind of experiment: Western blot of Bcl-xL protein after miRNA mimic transfection. The class given is cell-based, human. The settings on record: SKBR3.B3.1 and SKBR3.B3.2 cells, mimic transfection 24 hrs.
From the text: as §1, with “The densitometry analyses of Survivin signals were shown underneath, and the arbitrary numbers indicate the intensities of each cell line relative to controls, defined as 1.0.” left out
(§4) Western blot analysis. Protein expression levels were determined by western blot analysis as described previously (Wang et al., 2010; Huang et al., 2009; Huang et al., 2011). […] After the blots were incubated with horseradish peroxidase-labeled secondary antibody, the signals were detected using the enhanced chemiluminescence reagents (GE Healthcare Bio-Sciences Corp., Piscataway, N.J.).

Series [5] relates to miR-203 and miR-542-3p expression levels. As to the kind of experiment: qRT-PCR (TaqMan miRNA assays) of miRNA levels after mimic transfection. The class given is cell-based, human. As to conditions: SKBR3.B3.1 and SKBR3.B3.2 cells, 24 hrs, normalized to RNU6B, vs control mimic.
From the text: as §1
Analysis of miRNA expression. […] The expression levels of miR-203 and miR-542-3p were then measured by quantitative real-time (qRT)-PCR using TaqMan MicroRNA Assays (Assay ID: 000507 and 001284, respectively; Applied Biosystems). […] The relative miRNA levels were calculated using the comparative Ct method (AACt) as reported (Howe et al., 2011). […]

A further series relates to Mcl-1. As to the kind of experiment: Western blot of Mcl-1 protein after miRNA mimic transfection. The class given is cell-based, human. The settings on record: SKBR3.B3.1 and SKBR3.B3.2 cells, mimic transfection 24 hrs.
From the text: as §1, with “The densitometry analyses of Survivin signals were shown underneath, and the arbitrary numbers indicate the intensities of each cell line relative to controls, defined as 1.0.” left out
as §4

Series [6] relates to cancer cell proliferation. As to conditions: ectopic expression; through G1 and G2/M cell cycle arrest; cited from earlier work.
A further series deals with HCC cells. As to conditions: expression of miR-203 in HCC cells lacking their expression; cited from earlier work.
The mark [7] stands for this setting: MDA-MB-453, BT474 and BT474-HR20 cells.
Setting [8] is: SKBR3.B3.1 and SKBR3.B3.2 cells, vs control mimic.

For the substance “miR-542-3p: miRIDIAN miRNA specific mimic of miR-542-3p (sequence UGUGACAGAUUGAUAACUGAAA, MIMAT0003389), purchased from Thermo Scientific Dharmacon (commercial miRIDIAN mimic, chemistry not given here)”, in the series on Survivin [1], the “gene down-regulation in microarray analysis” value is on record as “most down-regulated candidate gene was Survivin”. Also, the “protein levels of Survivin” value with Survivin [2] (setting [7]) was “able to down-regulate Survivin”; in the series with Survivin [2] (setting [8]), “clearly reduced the protein levels of Survivin”. Also, the “inhibition on Survivin compared with the other single mimic” value in the series on Survivin [2] (SKBR3.B3.1 and SKBR3.B3.2 cells) is listed as “more profound inhibition on Survivin than miR-203”. Besides, the tumor growth result in [3] is listed as “suppresses tumor growth”. Further, in the series on 18rRNA, the 18rRNA levels entry was “significantly decreased”. The “enhancement of paclitaxel-induced PARP cleavage and caspase-3 activation compared with the other single mimic” value in [4] is given as “more profound effects than miR-203”. In addition, the “paclitaxel-induced PARP cleavage and caspase-3 activation (cleaved caspase-3)” value in [4] is on record as “clearly enhanced paclitaxel-induced PARP cleavage”. Further, the “effect on BCl-xL protein” value in the series on Bcl-xL is listed as “no effect”. Besides, the “expression levels of miR-203 and/or miR-542-3p following mimic(s) transfection” value in series [5] was “dramatically increased”. Moreover, in the series with Mcl-1, the “effect on MCl-1 protein” value is “no effect”. The cancer cell proliferation result in series [6] was “inhibited cancer cell proliferation”.

Regarding “miR-203: miRIDIAN miRNA specific mimic of miR-203 (sequence GUGAAAUGUUUAGGACCACUAG, MIMAT0000264), purchased from Thermo Scientific Dharmacon (commercial miRIDIAN mimic, chemistry not given here)”, the “protein levels of Survivin” value is recorded as “able to down-regulate Survivin” with Survivin [2] (setting [7]) and “clearly reduced the protein levels of Survivin” in the series on Survivin [2] (setting [8]). In addition, in [4], the “paclitaxel-induced PARP cleavage and caspase-3 activation (cleaved caspase-3)” value is “clearly enhanced paclitaxel-induced PARP cleavage”. Moreover, in the series with Bcl-xL, the “effect on BCl-xL protein” value was “no effect”. Also, the “expression levels of miR-203 and/or miR-542-3p following mimic(s) transfection” value in series [5] is recorded as “dramatically increased”. Also, in the series with HCC cells, the cell growth entry is given as “inhibited cell growth”. The “effect on MCl-1 protein” value with Mcl-1 is on record as “no effect”.
